Data from PMC10534582, “A Pharmacokinetic Study of Sixteen Major Bioactive Components of Jinshui-Huanxian Granules in Pulmonary Fibrosis Model and Control Rats Using Orbitrap Fusion Mass Spectrometry” (Molecules, 2023).
Read-outs that look alike come from different tables or passages of the source.

What was measured:
[1] = Pharmacokinetics of JHG components in control rats after intragastric administration of JHGs (plasma, Orbitrap Fusion MS); assay type: in vivo, Sprague Dawley (SD) rats; details: for AUC(0-inf) / AUC(0-t) / half-life / MRT last / MRT inf / Tmax / Cmax: male, rat, plasma, po; for MRT last: read-out: MRT(0-t); for MRT inf: read-out: MRT(0-∞); for Cmax: intragastric JHGs; for pharmacokinetic process (Cmax and AUCs versus dosage): low, medium, high doses of JHGs
How it was run: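 Male SD rats (240 ± 20 g), fasted 12 h, given JHGs intragastrically at 10.8, 21.6 or 43.2 g raw drug/kg/d. Tail-vein plasma sampled predose to 24 h, methanol-extracted with internal standard, analyzed by C18 LC–Orbitrap MS (ESI, SIM). Parameters from non-compartmental analysis, n = 6.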

[2] = after oral administration; cited from earlier work
[3] = Sprague Dawley, 5.7 g/kg/day, JHGs low dose 5.70 g/kg/d
[4] = Sprague Dawley, 5.7 g/kg/day, JHGs low dose 5.70 g/kg/d, read-out: Tmax
[5] = Sprague Dawley, 5.7 g/kg/day, low dose 5.70 g/kg/d, n=6 (1st of 3 stacked values)
[6] = Sprague Dawley, 11.41 g/kg/day, JHGs medium dose 11.41 g/kg/d
[7] = Sprague Dawley, 11.41 g/kg/day, JHGs medium dose 11.41 g/kg/d, read-out: Tmax
[8] = Sprague Dawley, 11.41 g/kg/day, medium dose 11.41 g/kg/d, n=6 (2nd of 3 stacked values)
[9] = Sprague Dawley, 22.81 g/kg/day, JHGs high dose 22.81 g/kg/d
[10] = Sprague Dawley, 22.81 g/kg/day, JHGs high dose 22.81 g/kg/d, read-out: Tmax
[11] = Sprague Dawley, 22.81 g/kg/day, high dose 22.81 g/kg/d, n=6 (3rd of 3 stacked values)
[12] = Sprague-Dawley, after administration of JHGs, read-out: Tmax of all dosages

SMILES	Clearances ([1]; JHGs high dose 22.81 g/kg/d) [mL/min/kg]	Vss ([1]; JHGs high dose 22.81 g/kg/d) [L]	Clearances ([1]; JHGs low dose 5.70 g/kg/d) [mL/min/kg]	Vss ([1]; JHGs low dose 5.70 g/kg/d) [L]	Clearances ([1]; JHGs medium dose 11.41 g/kg/d) [mL/min/kg]	Vss ([1]; JHGs medium dose 11.41 g/kg/d) [L]	AUC(0-inf) [1, 3] [ng·h/mL]	AUC(0-t) [1, 3] [ng·h/mL]	half-life [1, 3] [h]	MRT last [1, 3] [h]	MRT inf [1, 3] [h]	Tmax [1, 4] [h]	Cmax [1, 5] [ng/mL]	AUC(0-inf) [1, 6] [ng·h/mL]	AUC(0-t) [1, 6] [ng·h/mL]	half-life [1, 6] [h]	MRT last [1, 6] [h]	MRT inf [1, 6] [h]	Tmax [1, 7] [h]	Cmax [1, 8] [ng/mL]	further results
O=c1cc(-c2ccc(O)cc2)oc2cc(OC3OC(CO)C(O)C(O)C3O)cc(O)c12 (stereo not drawn) [Apigenin-7-glucoside]	7.33 ± 1.2	6.6 ± 0.86	3.3 ± 0.67	3.94 ± 0.41	6 ± 1.3	5.33 ± 0.41	29.1 ± 6.32	20.2 ± 1.99	15.4 ± 4.12	8.84 ± 0.05	20.1 ± 4.89	1.83 ± 0.2	1.99 ± 0.17	28.9 ± 6.86	22.2 ± 2.68	11 ± 5.32	7.89 ± 0.21	15.3 ± 4.77	1.5	3.22 ± 0.44	AUC(0-inf) [1, 9]: 46.5 ± 7.55 ng·h/mL; AUC(0-t) [1, 9]: 36.5 ± 5.3 ng·h/mL; half-life [1, 9]: 9.62 ± 0.54 h; MRT last [1, 9]: 8.8 ± 0.07 h; MRT inf [1, 9]: 15 ± 0.61 h; Tmax [1, 10]: 1.67 ± 0.29 h; Cmax [1, 11]: 3.88 ± 0.42 ng/mL; Tmax [1, 12]: ≤ 2 h
O=c1cc(-c2ccc(O)c(O)c2)oc2cc(O[C@@H]3O[C@H](CO)[C@@H](O)[C@H](O)[C@H]3O)cc(O)c12 [Cynaroside]	2.5 ± 0.17	1.35 ± 0.09	1 ± 0.17	0.6 ± 0.08	1.3 ± 0.17	0.83 ± 0.06	312 ± 26	290 ± 24.4	5.75 ± 0.55	7.83 ± 0.02	9.56 ± 0.13	6	44 ± 5.61	433 ± 43.5	402 ± 39.2	5.75 ± 0.11	8.56 ± 0.09	10.3 ± 0.15	6	57.7 ± 5.09	AUCs compared among the analytes [1]: highest; correlation between CL, AUCs (AUC(0–t), AUC (0–∞)), t½, and dose [1]: there was a correlation; pharmacokinetic process (Cmax and AUCs versus dosage) [1]: linear pharmacokinetic process; AUC(0-inf) [1, 9]: 472 ± 31.3 ng·h/mL; AUC(0-t) [1, 9]: 438 ± 27.6 ng·h/mL; half-life [1, 9]: 5.1 ± 0.13 h; MRT last [1, 9]: 7.51 ± 0.01 h; MRT inf [1, 9]: 9.2 ± 0.11 h; Tmax [1, 10]: 6 h; Cmax [1, 11]: 79.5 ± 3.5 ng/mL; Tmax compared among the analytes ([1]; no matter the dosages): longest
COc1ccc(-c2cc(=O)c3c(OC)c(OC)c(OC)c(OC)c3o2)cc1OC [Nobiletin]	805.7 ± 251.3	882.05 ± 234.11	271.5 ± 60.7	287.56 ± 59.62	466.5 ± 143	642.56 ± 174.23	21.1 ± 6.95	15.6 ± 4.99	13.5 ± 1.64	8.63 ± 0.2	17.8 ± 2.23	0.75	2.51 ± 0.77	22.3 ± 6.8	14.4 ± 4.14	18.7 ± 2.51	8.19 ± 0.19	23.3 ± 3.85	0.75	3.02 ± 0.58	t1/2 ([1]; JHGs high dose 22.81 g/kg/d): 16.19 ± 7.02 h; AUC(0-inf) [1, 9]: 25.9 ± 9.57 ng·h/mL; AUC(0-t) [1, 9]: 17.9 ± 4.56 ng·h/mL; MRT last [1, 9]: 7.37 ± 0.43 h; MRT inf [1, 9]: 19.5 ± 7.12 h; Tmax [1, 10]: 0.75 h; Cmax [1, 11]: 4.46 ± 1.06 ng/mL; Tmax [1, 12]: ≤ 2 h
COc1ccc(C(C)=O)c(O)c1 [Paeonol]	2357.3 ± 393.5	1831.33 ± 158.35	1602 ± 417.2	1528.44 ± 295.01	2679.2 ± 604.3	2003.58 ± 215.42	55.6 ± 13	42.4 ± 8.94	13.2 ± 1.77	7.84 ± 0.03	16.1 ± 1.86	0.75	6.6 ± 1.48	59.2 ± 14.8	48.6 ± 10.1	11.1 ± 1.41	6.91 ± 0.23	12.7 ± 1.67	0.75	11.7 ± 2.03	AUC(0-inf) [1, 9]: 131 ± 20.9 ng·h/mL; AUC(0-t) [1, 9]: 106 ± 6.95 ng·h/mL; half-life [1, 9]: 9.02 ± 3.68 h; MRT last [1, 9]: 7.77 ± 0.37 h; MRT inf [1, 9]: 13.3 ± 3.52 h; Tmax [1, 10]: 2 h; Cmax [1, 11]: 15.7 ± 1.66 ng/mL; Tmax [1, 12]: ≤ 2 h; bioavailability in vivo [2]: poor
CC1=C2CC3C(CC(=O)C4CC(O)CCC43C)C2CCC12OC1CC(C)CNC1C2C (stereo not drawn) [Peimisine]	3.3 ± 0.5	3.96 ± 0.82	2.5 ± 0.67	3.26 ± 0.57	3.17 ± 0.83	3.98 ± 0.82	19.5 ± 5.73	12.4 ± 2.56	16.5 ± 2.09	9.16 ± 0.22	22.8 ± 3.24	4	1.49 ± 0.16	26.9 ± 7.93	17.8 ± 4.48	15.2 ± 1.25	9.14 ± 0.03	21.3 ± 1.78	4	2.08 ± 0.54	pharmacokinetic process (Cmax and AUCs versus dosage) [1]: linear pharmacokinetic process; AUC(0-inf) [1, 9]: 48.9 ± 9.74 ng·h/mL; AUC(0-t) [1, 9]: 34.9 ± 8.14 ng·h/mL; half-life [1, 9]: 11.4 ± 0.71 h; MRT last [1, 9]: 11.34 ± 0.11 h; MRT inf [1, 9]: 19.8 ± 0.92 h; Tmax [1, 10]: 8 h; Cmax [1, 11]: 2.35 ± 0.53 ng/mL
